# Measurements from patent publication US20130090333A1, “BENZOXAZINE DERIVATIVES AS CRAC MODULATORS” (Hoffmann-La Roche Inc., priority 2011, published 2013).
# Read-outs that look alike come from different tables or passages of the source.
# Legend:
# Assay type in all cases: cell-based
# [1] = tested on: IL-2 production in Jurkat cell (ATCC); experiment: Jurkat IL-2 Production Assay; conditions: Jurkat cells, 18-20 h incubation, serum/stimulant variant (1% FBS/PHA or 30% FBS/PMA+ionomycin) not given
# Description: Jurkat IL-2 Production Assay Cell: Jurkat cell (ATCC) was grown in RPMI 1640 with 10% FBS and 1% penicillin/streptomycin. The cell density was kept at 1.2˜1.8×10^6/mL in culture flask before seeding into culture plate, and the cell density in the plate was 0.5×10^6/2004/well. Culture Media: RPMI 1640 with 1% FBS or 30% FBS for high serum assay. Test Compound: Serial dilution was done in 100% DMSO, and intermediate dilution was done with RPMI 1640 medium with 1% FBS. The DMSO final concentration in culture well was 0.25%. Stimulant: PHA (Sigma#L9017-10MG) was used for the assay with 1% FBS in culture medium, and added after 10 minutes exposure of cell to compound/DMSO. The PHA final concentration in culture well was 5 μg/mL. PMA (Sigma# P-8139 5MG)/Ionomycin (Sigma# I0634-5MG) was used for the assay with 30% FBS in culture medium, and added at same time point as the 1% FBS culture assay. The final concentration of PMA was 50 ng/mL, and Ionomycin final concentration was 500 ng/mL. Incubation: At 37° C. with 5% CO2 and 95% humidity for 18 h˜20 h. IC50: IC50 was calculated with the data analysis software XLfit4, General Pharmacology model 251.
# [2] = tested on: T cell IL-2 production in human whole blood; experiment: Human Whole Blood Assay (inhibition of T cell IL-2 production); conditions: 10 μM Thapsigargin overnight, plasma IL-2 by AlphaLISA, read-out: HWB
# Description: Inhibition of T cell IL-2 production CRAC compounds were tested in human whole blood from normal donors. 200 μl of human whole blood was aliquoted into each well of a round bottom 96 well plate. Concentration-response curves were generated for test compounds and CsA (as controls) by performing serial dilutions of the compounds and incubating each concentration in a single well for 30 min (experiment was performed in triplicate). Following incubation, the blood was stimulated with 10 μM Thapsigargin (SIGMA) overnight at 37° C. IL-2 concentrations in the plasma were determined by AlphaLISA IL-2 assay (Perkin Elmer). Data analysis was performed using GraphPad PRISMS.
# PBMC from healthy donors = experiment: [3H]Thymidine Incorporation (MLR); conditions: mixed PBMC responder/stimulator 1:1, 4 days
# Description: [3H]Thymidine Incorporation (MLR)
# Freshly isolated PBMC from healthy donors were either used as responders, where the cells were pre-treated with various concentrations of inhibitors (as indicated in the figure legends), or stimulators where the cells were pre-treated with 0.05 mg/ml Mitomycin C for 20 min. Stimulator cells were washed twice with RPMI 1640 and mixed with responder PBMCs at a 1:1 ratio, totaling 2×10^5 cells/well in quadruplicate in a 96-well U-bottom tissue culture plates (Falcon). Cells were cultured in complete RPMI 1640 (supplemented with 10% FBS, 1 mM sodium pyruvate, and 100 IU/ml penicillin-streptomycin, 0.01M HEPES and 55 μM β-ME [Invitrogen]) for 4 days at 37° C. in 5% CO2. Cultures were pulsed with 0.5 μCi [3H]-thymidine (PerkinElmer) during the last 6 hrs of culture. Cells were harvested on filter plates using a 96-well plate harvester (PerkinElmer), and the incorporation of [3H]-thymidine was measured as cpm in a Topcount Microplate scintillation counter (PerkinElmer). Stimulator cells alone or responder cells alone were set up in parallel as controls.
Molecule,IC50 ([1]; Homo sapiens),IC50 ([2]; T-cell),IC50 [1],IC50 [2],IC50 (PBMC from healthy donors)
"CCn1nc(C(F)(F)F)cc1-c1ccc2c(c1)OCC(c1c(F)cccc1F)N2 (centres unmarked) [Example 6, 3-(2,6-Difluoro-phenyl)-7-(2-ethyl-5-trifluoromethyl-2H-pyrazol-3-yl)-3,4-dihydro-2H-benzo[1,4]oxazine]",0.02 µM,0.51 µM,–,–,0.11 µM
"CCn1nc(-c2cccnc2)cc1-c1ccc2c(c1)OCC(c1c(F)cccc1F)N2 (centres unmarked) [Example 7, 3-(2,6-Difluoro-phenyl)-7-(2-ethyl-5-pyridin-3-yl-2H-pyrazol-3-yl)-3,4-dihydro-2H benzo[1,4]oxazine]",0.07 µM,0.32 µM,–,–,0.33 µM
"Cc1sc(-c2cccnc2)nc1-c1ccc2c(c1)OCC(c1c(F)cccc1F)N2 (centres unmarked) [Example 12, 3-(2,6-Difluoro-phenyl)-7-(5-methyl-2-pyridin-3-yl-thiazol-4-yl)-3,4-dihydro-2H-benzo[1,4]oxazine]",0.03 µM,0.43 µM,–,–,0.19 µM
"(R)-3-(2,6-Difluoro-phenyl)-7-(2-methyl-4-trifluoromethyl-phenyl)-3,4-dihydro-2H-benzo[1,4]oxazine or (S)-3-(2,6-Difluoro-phenyl)-7-(2-methyl-4-trifluoromethyl-phenyl)-3,4-dihydro-2H-benzo[1,4]oxazine [Example 2]",–,–,0.08 µM,3.16 µM,–

# More lines, main results first:
IC50 ([1]; Homo sapiens),IC50 ([2]; T-cell),IC50 [1],IC50 [2],Molecule,IC50 (PBMC from healthy donors)
0.03 µM,0.52 µM,–,–,"CCc1sc(-c2cccnc2)nc1-c1ccc2c(c1)OCC(c1c(F)cccc1F)N2 (centres unmarked) [Example 14, 3-(2,6-Difluoro-phenyl)-7-(5-ethyl-2-pyridin-3-yl-thiazol-4-yl)-3,4-dihydro-2H-benzo[1,4]oxazine]",0.1 µM
0.02 µM,0.87 µM,–,–,"CCc1sc(-c2cnccn2)nc1-c1ccc2c(c1)OCC(c1c(F)cccc1F)N2 (centres unmarked) [Example 16, 3-(2,6-difluorophenyl)-7-(5-ethyl-2-(pyrazin-2-yl)thiazol-4-yl)-3,4-dihydro-2H-benzo[b][1,4]oxazine]",0.18 µM
0.02 µM,0.32 µM,–,–,"CCc1sc(-c2ccncc2)nc1-c1ccc2c(c1)OCC(c1c(F)cccc1F)N2 (centres unmarked) [Example 17, 3-(2,6-Difluoro-phenyl)-7-(5-ethyl-2-pyridin-4-yl-thiazol-4-yl)-3,4-dihydro-2H-benzo[1,4]oxazine]",0.44 µM
0.03 µM,0.36 µM,–,–,"CCc1sc(-c2cc(C)on2)nc1-c1ccc2c(c1)OCC(c1c(F)cccc1F)N2 (centres unmarked) [Example 20, 3-(2,6-difluorophenyl)-7-(5-ethyl-2-(5-methylisoxazol-3-yl)thiazol-4-yl)-3,4-dihydro-2H-benzo[b][1,4]oxazine]",0.43 µM
0.16 µM,5.33 µM,–,–,"Cc1cc(C(F)(F)F)ccc1-c1ccc2c(c1)OCC(c1c(F)cccc1Cl)N2 (centres unmarked) [Example 29, 3-(2-Chloro-6-fluoro-phenyl)-7-(2-methyl-4-trifluoromethyl-phenyl)-3,4-dihydro-2H-benzo[1,4]oxazine]",–
0.14 µM,3.55 µM,–,–,"Cc1sc(-c2ccccn2)nc1-c1ccc2c(c1)OCC(c1c(F)cccc1Cl)N2 (centres unmarked) [Example 31, 3-(2-Chloro-6-fluoro-phenyl)-7-(5-methyl-2-pyridin-2-yl-thiazol-4-yl)-3,4-dihydro-2H-benzo[1,4]oxazine]",–
0.05 µM,0.58 µM,–,–,"Cc1sc(-c2cccnc2)nc1-c1ccc2c(c1)OCC(c1c(F)cccc1Cl)N2 (centres unmarked) [Example 32, 3-(2-Chloro-6-fluoro-phenyl)-7-(5-methyl-2-pyridin-3-yl-thiazol-4-yl)-3,4-dihydro-2H-benzo[1,4]oxazine]",–
